The pIC50 is the negative decadic logarithm of the IC50, by convention in mol/L.

Here are results for 1 compound from US20220144823A1, “PYRAZOLOPYRIDINE DERIVATIVES AS INHIBITORS OF PASK” (Galapagos NV, priority 2019, published 2022).

pIC50: −log10 of the molar value.

This assay deals with T1, human PASK (Homo sapiens, UniProt Q96RG2).
T1 construct: purchased ThermoFisher Scientific PR7013A
As to the kind of experiment: 33P radioactive kinase assay. Particulars: 33P radioactive PASK kinase assay, 10 μM ATP, ZIPtide 1 μM. The format is biochemical. Summed up:
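Human PASK phosphorylation of ZIPtide peptide was measured by incorporation from [^33P]-ATP plus unlabelled ATP, with a 10-point, 1/5 dilution series from 0.2 or 2 mM DMSO stocks and 1% DMSO final. Reactions were stopped with phosphoric acid, filter-harvested, washed and scintillation-counted. Percentage inhibition gave dose–response curves and averaged IC50s.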

T1 sequence (Q96RG2 whole entry): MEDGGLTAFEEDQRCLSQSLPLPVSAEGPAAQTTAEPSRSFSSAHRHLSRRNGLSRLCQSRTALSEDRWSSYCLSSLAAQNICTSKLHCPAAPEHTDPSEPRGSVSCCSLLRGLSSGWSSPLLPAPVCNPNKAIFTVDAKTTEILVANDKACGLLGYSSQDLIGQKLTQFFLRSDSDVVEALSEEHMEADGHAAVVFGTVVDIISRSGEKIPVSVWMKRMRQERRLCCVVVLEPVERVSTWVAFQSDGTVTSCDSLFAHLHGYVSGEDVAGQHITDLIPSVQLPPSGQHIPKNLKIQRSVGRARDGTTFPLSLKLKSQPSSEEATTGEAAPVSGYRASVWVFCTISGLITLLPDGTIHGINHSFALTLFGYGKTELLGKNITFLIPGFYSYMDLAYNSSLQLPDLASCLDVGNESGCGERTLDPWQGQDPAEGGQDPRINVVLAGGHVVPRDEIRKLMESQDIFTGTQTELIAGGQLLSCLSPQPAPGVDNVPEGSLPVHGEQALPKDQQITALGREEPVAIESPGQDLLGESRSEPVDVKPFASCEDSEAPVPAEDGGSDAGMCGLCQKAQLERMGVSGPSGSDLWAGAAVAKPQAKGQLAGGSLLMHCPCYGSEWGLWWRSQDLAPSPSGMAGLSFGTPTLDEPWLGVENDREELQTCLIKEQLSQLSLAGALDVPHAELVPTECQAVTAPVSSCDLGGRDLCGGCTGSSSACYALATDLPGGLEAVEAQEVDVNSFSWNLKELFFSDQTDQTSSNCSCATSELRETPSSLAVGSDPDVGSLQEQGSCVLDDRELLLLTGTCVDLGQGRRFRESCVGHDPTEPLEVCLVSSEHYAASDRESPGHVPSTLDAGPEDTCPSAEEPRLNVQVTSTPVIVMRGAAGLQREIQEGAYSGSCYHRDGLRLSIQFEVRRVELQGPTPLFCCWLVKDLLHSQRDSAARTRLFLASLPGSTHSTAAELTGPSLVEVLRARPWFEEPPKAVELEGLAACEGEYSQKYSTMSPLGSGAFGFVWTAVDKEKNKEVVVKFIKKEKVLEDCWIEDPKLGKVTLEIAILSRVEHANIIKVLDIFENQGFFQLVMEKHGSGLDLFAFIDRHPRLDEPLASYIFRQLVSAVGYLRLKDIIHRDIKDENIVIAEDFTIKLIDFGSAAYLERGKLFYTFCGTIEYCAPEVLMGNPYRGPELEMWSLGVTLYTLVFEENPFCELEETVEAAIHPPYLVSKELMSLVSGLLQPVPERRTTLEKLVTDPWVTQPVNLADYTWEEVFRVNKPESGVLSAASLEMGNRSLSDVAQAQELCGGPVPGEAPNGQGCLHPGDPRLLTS

Regarding `Cc1nn(C(C)C)c(C)c1-c1cnn2ccc(-c3cc(C(=O)O)co3)cc12` [Cpd 18, 5-[3-(1-isopropyl-3,5-dimethyl-pyrazol-4-yl)pyrazolo[1,5-a]pyridin-5-yl]furan-3-carboxylic acid], the pIC50 is 8.00 to 11.00.
